Assay results as given in patent US20230263725A1, “INTRANASAL ADMINISTRATION OF AN ANTIOXIDANT COMPOUND FOR TREATING CORONAVIRUS INFECTION” (priority 2020, published 2023).
“And” between values parts separate entries of the source, which are not always exact repeats. Equal entries are not always repeated. Where two headings read alike, the source gives them in different places.

Columns and labels:
[1] = system: brain glutathione (GSH/Cr); assay: Intranasal NAC, brain glutathione by MEGA PRESS MR Spectroscopy in healthy subjects; type: in vivo, humans
Procedure: In this example, intranasal administration of NAC to healthy humans was studied.
The study consisted of two study periods each involving 3 subjects and was designed to provide rapid proof-of-concept data on the ability of intranasal NAC to increase brain GSH levels. In Study Period 1, three right-handed male subjects, and 58 were evaluated. After informed consent and completion of a medical history questionnaire, each subject participated in multiple MR Spectroscopy sessions. On the first day, each subject was scanned once. A T1-weighted thin slice data set was acquired for subsequent positioning of a MR spectroscopy voxel (5×5×3 cm3) positioned with its posterior edge covering the genu of the corpus callosum, extending anteriorly into the frontal lobes.
GSH levels were determined within the volume of interest using […] double-editing for the cysteinyl β-CH2 residue of GSH. Spectral editing was accomplished by refocusing GSH J-evolution during every other acquisition (ON), using a Gaussian pulse centered at the cysteinyl α-CH resonance of GSH at 4.56 p.p.m. During the alternate acquisitions (OFF), the pulse was applied symmetrically about the water peak. The difference-edited GSH spectrum was generated by subtraction of the OFF and ON spectra. Data analysis was accomplished using the GANNET software package which provided information on the GSH/Cr ratio. The Day 1 scan served as an initial baseline.
On Day 2, another baseline evaluation was performed, along with two additional scans at 1-hour and 2-hours post administration of intranasal NAC. The timing of Day 2 scans was shifted relative to Day 1, such that the time-of-day for the Day 1 baseline scan matched the time-of-day of the Day 2, 1-hour post NAC scan. This is illustrated in FIG. 2 and was done to provide control for potential circadian rhythm effects in GSH levels. In FIG. 2, green bars show times of spectroscopic imaging. The time-of-day for the baseline MRS scan on Day 1 matches the time-of-day for the 1-hour post-NAC scan on Day 2.
Solution was delivered as six alternating bursts of 0.33 ml to each nostril over the course of 5-10 minutes.
In Study Period 2, three additional right-handed male subjects, and 31 were studied. MRS data were collected on a single day, with baseline, 1 hr, 2 hrs, and 4 hrs post-NAC evaluations (as illustrated in FIG. 5). The same spectroscopic methods as used in period 1 were employed. However, a multi-dose pump intranasal delivery device was used.

SARS-CoV-2 = assay: Oral NAC in mild or moderate COVID-19, open label controlled study NCT04419025; type: in vivo
[2] = system: A/H1N1 Singapore 6/86 influenza virus; settings: oral NAC over 6 months; control 79%; cited from earlier work
GSH levels in the brain = settings: NAC delivered intranasally and orally; cited from earlier work
[3] = cited from earlier work; for F total meas (total bioavailability experimentally determined): naltrexone 4 mg
[4] = Safety and tolerability of intranasal NAC in healthy subjects
[5] = intranasal, with versus without DDM
[6] = study period 1, intranasal 20% MUCOMYST, 1 ml per nostril, mucosal atomization device, subject (male)
[7] = study period 2, intranasal, multi-dose pump, (male)
[8] = intranasal + DDM, sumatriptan 10 mg
[9] = intranasal, without DDM, sumatriptan 20 mg

CC(=O)N[C@@H](CS)C(=O)O [NAC, N-acetyl cysteine]
time of peak levels ([1]; all subjects, FIG. 8): 1 to 2 h
effect on brain GSH as measured by MR spectroscopy ([1]; intranasal NAC): statistically significant increase
brain GSH levels above baseline at 4 hours ([1]; intranasal NAC, 4 hours, FIG. 8): ~ 35%
increase in brain GSH levels (average percent change in GSH/Cr) ([1]; intranasal NAC, combined across all subjects, FIG. 8): > 50%
time for which the increase in brain GSH/Cr level is sustained post-administration ([1]; study period 1): at least 2 hours
Day 2, 1-hour post-NAC GSH/Cr [1, 6]: 0.059 and 0.037 and 0.031
Day 2, 2-hours post-NAC GSH/Cr [1, 6]: 0.052 and 0.035 and 0.048
time for which increased brain GSH/Cr levels are maintained ([1]; study period 2): at least 4 hrs
1-hr post-NAC GSH/Cr [1, 7]: 0.034 and 0.053 and 0.050
2-hours post-NAC GSH/Cr [1, 7]: 0.039 and 0.042 and 0.045
4 hrs-hours post-NAC GSH/Cr [1, 7]: 0.036 and 0.041 and 0.042
fewer days in the hospital versus no NAC (SARS-CoV-2; hospitalized group, oral NAC): 1 days
hospitalization days (SARS-CoV-2; hospitalized group, oral NAC 25 mg/kg every 4 hours, 6 days without NAC): 5 days
deaths (SARS-CoV-2; hospitalized group, oral NAC, group without NAC had 2-3 deaths): no deaths
increase in hospitalization needed for those who did not receive oral NAC (SARS-CoV-2; outpatients): ~5 x
outpatients needing hospitalization (SARS-CoV-2; outpatients, mild cases, oral NAC 2400 mg then 1200 mg 2x/day for 2 weeks, 15% without NAC): 3-4%
developed a symptomatic form of the A/H1N1 Singapore 6/86 influenza virus [2]: 25%
effect on GSH levels in the brain (GSH levels in the brain): increase in GSH levels in the brain
bioavailability of oral NAC ([3]; oral dosing): 10% and 9-10%
changes in heart-rate, breathing rate, O2 saturation or blood pressure ([4]; intranasal NAC): No significant changes
duration of transient nausea ([4]; intranasal NAC): < 5 min
subjects voicing complaints about the NAC odor ([4]; intranasal NAC): 5 of 6
adverse events ([4]; intranasal NAC, 6 subjects): no adverse events were reported
subjects reporting very mild transient nausea ([4]; intranasal NAC, 6 subjects): 2
complaints of NAC fluid into the throat ([4]; mucosal atomizer, study period 1): all three subjects complained
complaints of NAC fluid into the throat ([4]; multi-dose pump, study period 2): not found

O=C1CC[C@@]2(O)[C@H]3Cc4ccc(O)c5c4[C@@]2(CCN3CC2CC2)[C@H]1O5 [Naltrexone]
F total meas (total bioavailability experimentally determined) [3, 8]: 95%
F total meas (total bioavailability experimentally determined) [3, 9]: 65%

CNS(=O)(=O)Cc1ccc2[nH]cc(CCN(C)C)c2c1 [Sumatriptan]
increase in bioavailability when dosed together with DDM [5]: 35%
F total meas (total bioavailability experimentally determined) [3, 8]: 69%
F total meas (total bioavailability experimentally determined) [3, 9]: 34%
